In brackets after ≈: the same amount, converted by molar mass. Like-named read-outs stand apart in the source and are kept apart here.
Tests used:
[1] = system: Staphylococcus epidermidis; experiment: MIC against Staphylococcus epidermidis; format: cell-based
From the text: (§1) Below are described the antibacterial activities of the compounds in the compositions according to this invention. The results of antibacterial activity tests on the N-alkyl-substituted azaalkenelactams and their derivatives having a carboxylate radical of Examples 1 to 70 were as shown in Tables 1 to 3.
(§2) The testing method complied with the standard method of Japan Sociaty of Chemotherapy.

[2] = system: Pseudomonas aruginosa IFO 3443; experiment: MIC against Pseudomonas aeruginosa; format: cell-based
From the text: as §1, §2

Escherichia coli NIHJ = experiment: MIC against Escherichia coli NIHJ; format: cell-based
From the text: (§3) Below are described the antibacterial activities of the compounds in the compositions according to this invention.
as §2

Salmonella typhinurium = experiment: microbe, parasite or virus in culture; format: cell-based, Salmonella typhimurium
From the text: as §1, §2

[3] = system: Staphylococcus aureus FDA 209P; experiment: MIC against Staphylococcus aureus FDA 209P; format: cell-based
From the text: as §3, §2

Streptococcus faecalis = experiment: MIC against Streptococcus faecalis; format: cell-based
From the text: as §1, §2

[4] = system: Bacillus subtilis ATCC 6633; experiment: MIC against Bacillus subtilis ATCC 6633; format: cell-based
From the text: as §1, §2

Pasteurella multocida = experiment: MIC against Pasteurella multocida; format: cell-based; conditions: Table 3, heart infusion agar, 37° C., 24 hours
From the text: as §1, §2

[5] = system: Desulfovibrio desulfuricans IFO 13699; experiment: MIC against Desulfovibrio desulfuricans; format: cell-based
From the text: as §3, §2

[6] = Staphylococcus aureus, FDA209P, 24 h
[7] = Bacillus subtilis, ATCC6633, 24 h
[8] = Pasteurella multocida, read-out: MIC
[9] = Desulfovibrio desulfuricans, IFO13699, 24 h
[10] = Staphylococcus epidermidis, Table 3, heart infusion agar, 37° C., 24 hours, read-out: MIC
[11] = Escherichia coli, Table 1, azaalkenelactams, heart infusion agar, 37° C., 24 hours, read-out: MIC
[12] = Table 3, heart infusion agar, 37° C., 24 hours, read-out: MIC
[13] = Staphylococcus aureus, FDA209P, Table 1, azaalkenelactams, heart infusion agar, 37° C., 24 hours, read-out: MIC
[14] = Desulfovibrio desulfuricans, IFO13699, Table 1, azaalkenelactams, heart infusion agar, 37° C., 24 hours, read-out: MIC
[15] = Table 3, heart infusion agar, 37° C., 24 hours
[16] = Table 1, azaalkenelactams, heart infusion agar, 37° C., 24 hours
[17] = Escherichia coli, Table 2, derivatives having a carboxylate radical, heart infusion agar, 37° C., 24 hours, read-out: MIC

What does the source list for `CCCCCCCCCCCC(=O)NCCN1CCN=C(C)CC1=O` [Example 9, 4-lauramidoethyl-7-methyl-3,6-dihydro-2H-1,4-diazepin-5-one]?
MIC ([1]; Staphylococcus epidermidis, 24 h): 6.25 µg/mL (≈ 17.8 µM); MIC ([2]; Pseudomonas, IFO3443, 24 h): 100 µg/mL (≈ 284 µM); MIC (Escherichia coli NIHJ; Escherichia coli, 24 h): 25 µg/mL (≈ 71.1 µM); MIC (Salmonella typhinurium; 24 h): 6.25 µg/mL (≈ 17.8 µM); MIC [3, 6]: 12.5 µg/mL (≈ 35.6 µM); MIC (Streptococcus faecalis; Enterococcus faecalis, 24 h): 12.5 µg/mL (≈ 35.6 µM); MIC [4, 7]: 25 µg/mL (≈ 71.1 µM); MIC (Pasteurella multocida; [8]): 3.12 µg/mL (≈ 8.88 µM); MIC [5, 9]: 6.25 µg/mL (≈ 17.8 µM)

`CCCCCCCCCCCCCCC(O)CNCCN1CCN=C(C)CC1=O` (stereo not shown) [Example 29, 4-(2-hydroxyhexadecyl)aminoethyl-7-methyl-3,6-dihydro-2H-1,4-diazepin-5-one] was tested. Which MIC [1, 10] did it give?
The MIC was 1.56 µg/mL (≈ 3.81 µM).

And the MIC ([2]; Pseudomonas, IFO3443, Table 3, heart infusion agar, 37° C., 24 hours, read-out: MIC)?
The MIC was 100 µg/mL (≈ 244 µM).

What about the MIC (Escherichia coli NIHJ; [11]) of the same compound?
The MIC was 25 µg/mL (≈ 61 µM).

And the MIC (Salmonella typhinurium; [12])?
Its MIC is 3.12 µg/mL (≈ 7.62 µM).

And the MIC [3, 13]?
Its MIC is 6.25 µg/mL (≈ 15.3 µM).

And the MIC (Streptococcus faecalis; Enterococcus faecalis, Table 3, heart infusion agar, 37° C., 24 hours, read-out: MIC)?
The MIC was 6.25 µg/mL (≈ 15.3 µM).

What about the MIC [4, 7] of the same compound?
The MIC was 3.12 µg/mL (≈ 7.62 µM).

What about the MIC (Pasteurella multocida; [8]) of the same compound?
Its MIC is less than 1.56 µg/mL.

And the MIC [5, 14]?
Its MIC is 3.12 µg/mL (≈ 7.62 µM).

`CCCCCCCCCCCCNCCNCCN1CCN=C(C)CC1=O` [Example 34, 4-dodecylaminoethylaminoethyl-7-methyl-3,6-dihydro-2H-1,4-diazepin-5-one] was tested. Which MIC [1, 10] did it give?
Its MIC is less than 1.56 µg/mL.

And the MIC ([2]; Pseudomonas, IFO3443, 24 h)?
Its MIC is 100 µg/mL (≈ 263 µM).

What about the MIC (Escherichia coli NIHJ; Escherichia coli, 24 h) of the same compound?
The MIC was 25 µg/mL (≈ 65.7 µM).

What about the MIC (Salmonella typhinurium; [12]) of the same compound?
Its MIC is 3.12 µg/mL (≈ 8.2 µM).

What about the MIC [3, 13] of the same compound?
The MIC was 3.12 µg/mL (≈ 8.2 µM).

And the MIC (Streptococcus faecalis; Enterococcus faecalis, 24 h)?
Its MIC is 6.25 µg/mL (≈ 16.4 µM).

What about the MIC [4, 7] of the same compound?
Its MIC is 3.12 µg/mL (≈ 8.2 µM).

What about the MIC (Pasteurella multocida; [8]) of the same compound?
Its MIC is less than 1.56 µg/mL.

What about the MIC [5, 14] of the same compound?
The MIC was 3.12 µg/mL (≈ 8.2 µM).

Which results are given for `CCCCCCCCCCCCCCC(O)CNCCN1CCCN=CC(C)C1=O` (stereo not shown) [Example 49, 1-(2-hydroxyhexadecyl)aminoethyl-3-methyl-3,6,7,8-tetrahydro-1,5-diazocin-2-one]?
MIC [1, 15]: 1.56 µg/mL (≈ 3.68 µM); MIC [2, 15]: 200 µg/mL (≈ 472 µM); MIC (Escherichia coli NIHJ): 25 µg/mL (≈ 59 µM); MIC [3, 16]: 3.12 µg/mL (≈ 7.36 µM); MIC (Streptococcus faecalis; [15]): 6.25 µg/mL (≈ 14.8 µM); MIC [4, 15]: 3.12 µg/mL (≈ 7.36 µM); MIC (Pasteurella multocida): < 1.56 µg/mL; MIC [5, 16]: 3.12 µg/mL (≈ 7.36 µM)

With “4-(2-hydroxyhexadecyl)aminoethyl-6-methyl-3,6-dihydro-2H-1,4-diazepin-5-one [Example 41]” as the compound, how does the MIC [1, 15] read?
Its MIC is 1.56 µg/mL.

What about the MIC [2, 15] of the same compound?
The MIC was 100 µg/mL.

What about the MIC (Escherichia coli NIHJ) of the same compound?
Its MIC is 25 µg/mL.

What about the MIC [3, 16] of the same compound?
The MIC was 3.12 µg/mL.

And the MIC (Streptococcus faecalis; [15])?
Its MIC is 6.25 µg/mL.

And the MIC [4, 15]?
Its MIC is 3.12 µg/mL.

What about the MIC (Pasteurella multocida) of the same compound?
The MIC was less than 1.56 µg/mL.

What about the MIC [5, 16] of the same compound?
The MIC was 3.12 µg/mL.

“1-nonylphenylpoly(2 moles)oxyethyleneoxyethyl-3,3-dimethyl-1-aza-5-azoniacyclooct-4-en-2-one-5-acetate” was tested. Which MIC (Escherichia coli NIHJ) did it give?
The MIC was 400 µg/mL.

And the MIC [3]?
Its MIC is 100 µg/mL.

And the MIC [5]?
The MIC was 50 µg/mL.

Which results are given for `CCCCCCCCC=CCCCCCCCCN1CCCN=C(C)CC1=O` [Example 4, 1-(9-octadecenyl)-4-methyl-3,6,7,8-tetrahydro-1,5-diazocin-2-one]?
MIC (Escherichia coli NIHJ; [11]): 800 µg/mL (≈ 2050 µM); MIC [3, 6]: 25 µg/mL (≈ 64 µM); MIC [5, 9]: 12.5 µg/mL (≈ 32 µM)

Which results are given for `CCCCCCCCCCCCN1CC[N+](CC(=O)[O-])=CC(C)C1=O` (stereo not shown) [4-dodecyl-6-methyl-1-azonia-4-azacyclohept-7-en-5-one-1-acetate]?
MIC (Escherichia coli NIHJ; [17]): 800 µg/mL (≈ 2270 µM); MIC [3, 6]: 25 µg/mL (≈ 70.9 µM); MIC [5, 9]: 25 µg/mL (≈ 70.9 µM)

How did the MIC (Escherichia coli NIHJ; [17]) turn out when `CCCCCCCCOCCCN1CC[N+](CC(=O)[O-])=CC(C)(C)C1=O` [4-oxtoxypropyl-6,6-dimethyl-1-azonia-4-azacyclohept-7-en-5-one-1-acetate] was run?
The MIC was 800 µg/mL (≈ 2170 µM).

And the MIC [3, 6]?
Its MIC is 200 µg/mL (≈ 543 µM).

What about the MIC [5, 9] of the same compound?
The MIC was 50 µg/mL (≈ 136 µM).

Which results are given for `CCCCCCCCCCCCCCC(O)CNCCN1CC[N+](CC(=O)[O-])=CCC(C)C1=O` (stereo not shown) [4-(2-hydroxyhexadecyl)aminoethyl-6-methyl-4-aza-1-azoniacyclooct-8-en-5-one-1-acetate]?
MIC (Escherichia coli NIHJ; Escherichia coli, 24 h): 100 µg/mL (≈ 208 µM); MIC [3, 6]: 25 µg/mL (≈ 51.9 µM); MIC [5, 9]: 25 µg/mL (≈ 51.9 µM)

For `CCCCCCCC/C=C\CCCCCCCC(=O)OCCN1CCN=C(C)CC1=O` [Example 13, 4-oleoyloxyethyl-7-methyl-3,6-dihydro-2H-1,4-diazepin-5-one], which MIC (Escherichia coli NIHJ; [11]) is on record?
Its MIC is 1600 µg/mL (≈ 3680 µM).

And the MIC [3, 6]?
The MIC was 100 µg/mL (≈ 230 µM).

What about the MIC [5, 9] of the same compound?
The MIC was 12.5 µg/mL (≈ 28.8 µM).

Which MIC (Escherichia coli NIHJ; [17]) does the source give for `CCCCCCCCCCC(O)CN1CC[N+](CC(=O)[O-])=CC(C)C1=O` (stereo not shown) [4-(2-hydroxy)dodecyl-6-methyl-1-azonia-4-azacyclohept-7-en-5-one-1-acetate] here?
Its MIC is 800 µg/mL (≈ 2170 µM).

And the MIC [3, 6]?
Its MIC is 25 µg/mL (≈ 67.8 µM).

And the MIC [5, 9]?
The MIC was 25 µg/mL (≈ 67.8 µM).

With `CCCCCCCC/C=C\CCCCCCCC(=O)OCCN1CC[N+](CC(=O)[O-])=C(C)CC1=O` [4-oleoyloxyethyl-7-methyl-1-azonia-4-azacyclohept-7-en-5-one-1-acetate] as the compound, how does the MIC (Escherichia coli NIHJ; [17]) read?
Its MIC is 3200 µg/mL (≈ 6490 µM).

What about the MIC [3, 6] of the same compound?
Its MIC is 200 µg/mL (≈ 406 µM).

What about the MIC [5, 9] of the same compound?
The MIC was 25 µg/mL (≈ 50.7 µM).

Source: patent US4346087A, “Antibacterial surface active agent containing azaalkenelactam” (priority 1979, dated 1982)
